Here are results for three molecules from paper PMC11672292, “Discovery of Balasubramide Derivative with Tissue‐Specific Anti‐Inflammatory Activity Against Acute Lung Injury by Targeting VDAC1” (Advanced Science, 2024).

For series [1], the system named is LPS-stimulated RAW264.7 cells. Kind of series: LPS-induced TNF-α release in RAW264.7 macrophages (ELISA). The settings on record: for IC50: read-out: IC50, inhibition of LPS-induced TNF-α release. Format: cell-based, mouse. Here is the method:
The anti‐inflammatory effects of all (+)‐balasubramide derivatives were evaluated in Lipopolysaccharide (LPS, L2630, Sigma–Aldrich, USA)‐induced macrophage inflammation model. RAW264.7 cells were pretreated with various compounds or (+)3C‐20 at different concentrations for 3 h, and then stimulated with LPS (100 ng mL^−1) for 2 h for the detection of pro‐inflammatory factors expressions. Similarly, following 3 h co‐incubation with (+)3C‐20, mouse BMDMs were stimulated with LPS (100 ng mL^−1) for 3 h. TNF‐α protein in the culture medium supernatant was measured by a commercial ELISA kit (#1 217 202, DAKEWE, China) following the manufacture's protocols.
For orientation: In an ELISA, binding on a coated surface is turned into a signal by an enzyme label.

Series [2] relates to RAW264.7 cells. Briefly: CCK-8 cell viability assay. Format: cell-based, mouse. Particulars: 10 μM, 24 h. Here is the method:
Cell viability was determined by CCK‐8 assay. RAW264.7 cells or mouse BMDMs cultured in a 96‐well plate were pretreated with various compounds at 10 µM or different concentrations of (+)3C‐20 for 24 h when cells reached 70% confluence and then were treated with DMEM containing 5 µL CCK‐8 reagent (A311, Vazyme, China) in a humidified atmosphere of 5% CO2 and 95% air for 1 h at 37 °C. The UV absorption values of the medium with CCK‐8 were measured at 450 nm in a ThermoFisher plate‐reader (VL0L0TD2, Waltham, USA).

Series [3] deals with mice. Kind of series: Acute toxicity (LD50, sequential method), single intravenous injection. The settings on record: for Mortality: i.v.
Text: To test the safety of (+)3C‐20 in mice, as previously reported,^[ [31] ^] we estimated the acute toxicity of (+)3C‐20 in mice using a sequential method.

As a reminder, the IC50 is the concentration at which inhibition is half-maximal. Usually inhibition stands for the relative decrease from the control value, in per cent. What is called LD50 is the dose at which mortality reaches 50%. Low values mean greater toxicity, high ones lower toxicity.

Turning to `O=C(O)CNC(=O)C1(Nc2ccccc2)CCN(Cc2cccc3ccccc23)CC1` [VBIT-12, reference compound], the IC50 in series [1] (RAW264.7 cells) was found to be 83.1 µM.

In series [2], `CN1CCc2c([nH]c3ccccc23)C(c2ccccc2)C(O)C1=O` (single isomer, unassigned; (+)) [(+)3J] yielded a cell viability of 95.09 ± 1.19. In addition, in series [1] (LPS-induced RAW 264.7 macrophage inflammation model), the “effect on the release of TNF-α” value is “a certain inhibitory effect”. In addition, the inhibition at 10 µM in series [1] (Mus musculus, 10 μM + LPS (100 ng/mL), RAW264.7 cells, n = 3, read-out: Inhibition rate (%) of TNF-α release) is 19.1 ± 1.83%.

With `O=C(CC(CO)N1CCN(c2ccc(OC(F)(F)F)cc2)CC1)Nc1ccc(Cl)cc1` (stereo not shown) [VBIT-4], the half-inhibitory concentration (IC50) in series [1] (RAW264.7 cells) worked out at 19.8 µM. Besides, the Mortality was 0 in series [3] (dosage 60.00 mg/kg), 14.286 in series [3] (dosage 71.14 mg/kg), 83.333 in series [3] (dosage 84.34 mg/kg) and 100 in series [3] (dosage 100.00 mg/kg). Besides, in series [3] (single intravenous injection), the 50% lethal dose (LD50) worked out at 75.828 mg/kg.
